The results in this text go back to patent publication US11098061B2 (Celgene CAR LLC, priority 2013, dated 2021).

For test [1], the target named is p38a activated, mitogen-activated protein kinase-activated protein kinase 2 (MAPKAP-K2 or MK-2) enzyme (Homo sapiens (Human), UniProt P49137). In words: MK2 Omnia continuous-read kinase assay for compound potency. Type of test: biochemical. The conditions noted are these: [MK-2]=0.4 nM, [ATP]=1.0 mM, [ST3-Sox]=10 μM. An excerpt: The protocol below describes a continuous-read kinase assay optimized to measure potency of compounds against p38a activated, mitogen-activated protein kinase-activated protein kinase 2 (MAPKAP-K2 or MK-2) enzyme. The mechanics of the assay platform are best described by the vendor (Invitrogen, Carlsbad, Calif.) on their website at the following URL: invitrogen.com/search/global/searchAction. action?resultPage=1 &resultsPerPage=15 &query=om nia&personaFilterTerm=Support+%26+Troubleshoot
Kinase reactions were started with the addition of 40 μL of MK-2 enzyme and monitored every 71 seconds for 30-240 minutes at λex360/λem485 in a Synergy^2, Synergy^4 or Synergy H^4 plate reader from BioTek (Winooski, Vt.). […] Initial velocity (0 minutes to +30 minutes) from each reaction was estimated from the slope of a plot of relative fluorescence units vs time (minutes) and normalized to the no enzyme and no inhibitor control groups for % Inhibition. The resulting % Inhibition values were then plotted against inhibitor concentration to estimate IC50 from log[Inhibitor] vs Response, Variable Slope model in GraphPad Prism from GraphPad Software (San Diego, Calif.).
[MK-2]=0.4 nM, [ATP]=1.0 mM and [ST3-Sox]=10 μM (ATP ^appKM=8-10 μM)

The next test addresses MK2 (Homo sapiens (Human), UniProt P49137). In words: MK2 modification assessment by whole protein mass spectrometry. Format: binding. The note with it: intact MK2, 60 min, 10-fold excess of compound to protein. The protocol:
Modification of MK2 is measured by whole protein MS analysis. […] 5 μL aliquots of the samples were diluted with 15 μL of 0.2% TFA prior to micro C4 ZipTipping directly onto the MALDI target using sinapinic acid as the desorption matrix (10 mg/ml in 0.1% TFA:Acetonitrile 50:50). Analysis was performed on a AB Sciex 4800 MALDI TOF/TOF retro fitted with an HM2 detector (CovalX). Percent modification of target MK2 (i.e., the percent of total MK2 modified by the test compound) for each compound was calculated by subtracting the centroid mass of the compound treated MK2 from the centroid mass of the control MK2 and dividing that value with the mass of the compound.

pIC50: −log10 of the molar value.

MK2, sequence (P49137 whole entry): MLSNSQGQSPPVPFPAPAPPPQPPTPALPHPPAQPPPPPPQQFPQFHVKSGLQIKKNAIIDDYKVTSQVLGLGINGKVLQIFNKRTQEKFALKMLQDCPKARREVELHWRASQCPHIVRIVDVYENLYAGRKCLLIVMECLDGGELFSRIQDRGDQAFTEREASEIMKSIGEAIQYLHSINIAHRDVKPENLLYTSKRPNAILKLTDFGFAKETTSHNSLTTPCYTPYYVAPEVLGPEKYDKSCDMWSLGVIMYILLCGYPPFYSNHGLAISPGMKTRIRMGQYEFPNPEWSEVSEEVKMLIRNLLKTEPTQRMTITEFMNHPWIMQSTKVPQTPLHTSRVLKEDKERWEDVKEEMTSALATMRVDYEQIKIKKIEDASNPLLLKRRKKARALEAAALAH
p38a activated, mitogen-activated protein kinase-activated protein kinase 2 (MAPKAP-K2 or MK-2) enzyme, sequence (P49137 whole entry): as above

As usually defined, the pIC50 is the negative decadic logarithm of the IC50, by convention in mol/L. With `C=CC(=O)N[C@H]1CN(C(=O)c2ccc3cc4n(c3c2)CCNC4=O)CC[C@H]1C` [Compound V-2, N-((3R,4R)-4-methyl-1-(1-oxo-1,2,3,4-tetrahydropyrazino[1,2-a]indole-7-carbonyl)piperidin-3-yl)acrylamide], the pIC50 in test [1] is less than 6.00. The “MK2 Mass Mod” value at MK2 is “G (mass modification ≤30%)”.

Consider `C=CC(=O)N1CCC[C@@H](NC(=O)c2ccc3cc4n(c3c2)CCNC4=O)C1` [Compound V-3, (R)—N-(1-acryloylpiperidin-3-yl)-1-oxo-1,2,3,4-tetrahydropyrazino[1,2-a]indole-7-carboxamide], for which, in test [1], the pIC50 was less than 6.00. The “MK2 Mass Mod” value at MK2 is on record as “G (mass modification ≤30%)”.

For `C=CC(=O)N1CCOc2ncc(-c3ncc4c(n3)-c3[nH]c5c(c3CC4)C(=O)NCC5)cc21` [II-17, 2-(1-acryloyl-2,3-dihydro-1H-pyrido[2,3-b][1,4]oxazin-7-yl)-8,9,10,11-tetrahydro-SH-pyrido[3′,4′:4,5]pyrrolo[3,2-h]quinazolin-7(6H)-one], the pIC50 in test [1] is greater than 7.00. Besides, the “MK2 Mass Mod” value on MK2 is recorded as “E (mass modification of ≥70%)”.

Take `C[C@@H]1CNc2c(sc3ccc(C(=O)Nc4ccc5c(c4)N(C(=O)/C=C/CN(C)C)CCO5)cc23)C(=O)N1` [III-9, (R,E)-N-(4-(4-(dimethylamino)but-2-enoyl)-3,4-dihydro-2H-benzo[b][1,4]oxazin-6-yl)-3-methyl-5-oxo-2,3,4,5-tetrahydro-1H-benzo[4,5]thieno[3,2-e][1,4]diazepine-9-carboxamide]: the pIC50 in test [1] is less than 6.00. In addition, on MK2, the “MK2 Mass Mod” value is “F (mass modification of 31-69%)”.

Consider `C=CC(=O)Nc1cc(-c2cc3c(cn2)CCc2c-3[nH]c3c2C(=O)NCC3)ccc1OCCCNC(=O)CCCC(=O)NCCCOCCOCCOCCCNC(=O)CCCC[C@H]1SC[C@H]2NC(=O)N[C@H]21` [Probe 1], for which, in test [1], the pIC50 was greater than 7.00.

As for `CC(C)=CC(=O)COc1cc(NC(=O)c2ccc3sc4c(c3c2)NC[C@@H](C)NC4=O)ccc1F` [III-2, (R)—N-(4-fluoro-3-((4-methyl-2-oxopent-3-en-1-yl)oxy)phenyl)-3-methyl-5-oxo-2,3,4,5-tetrahydro-1H-benzo[4,5]thieno[3,2-e][1,4]diazepine-9-carboxamide], in test [1], the pIC50 was less than 6.00. In addition, the “MK2 Mass Mod” value at MK2 is listed as “G (mass modification ≤30%)”.

With `C=CC(=O)N[C@@H]1CCCN(C(=O)c2ccc3cc4n(c3c2)C2(CCC2)CNC4=O)C1` [Compound V-52, (R)—N-(1-(1′-oxo-2′,3′-dihydro-1′H-spiro[cyclobutane-1,4′-pyrazino [1,2-a]indol]-7′-ylcarbonyl)piperidin-3-yl)acrylamide], the pIC50 in test [1] is less than 6.00. Further, the “MK2 Mass Mod” value at MK2 is reported as “G (mass modification ≤30%)”.

As to `CN(C)C/C=C/C(=O)N1CCOc2ccc(NC(=O)c3ccc4cc5n(c4c3)CCNC5=O)cc21` [Compound V-4, (E)-N-(4-(4-(dimethylamino)but-2-enoyl)-3,4-dihydro-2H-benzo[b][1,4]oxazin-6-yl)-1-oxo-1,2,3,4-tetrahydropyrazino[1,2-a]indole-7-carboxamide], in test [1], the pIC50 is less than 6.00. Further, the “MK2 Mass Mod” value at MK2 was “G (mass modification ≤30%)”.

In the case of `C=CC(=O)Nc1ccc2oc(-c3ccc4cc5n(c4c3)C3(CCC3)CNC5=O)nc2c1` [Compound V-60, N-(2-(1′-oxo-2′,3′-dihydro-1′H-spiro[cyclobutane-1,4′-pyrazino [1,2-a]indol]-7′-yl)benzo[d]oxazol-5-yl)acrylamide], the negative logarithm of the IC50 (pIC50) in test [1] was greater than 7.00. The “MK2 Mass Mod” value at MK2 is “G (mass modification ≤30%)”.

Take `C=CC(=O)Nc1cc(NC(=O)c2ccc3cc4n(c3c2)CCNC4=O)ccc1N1CCN(CC)CC1` [Compound V-1, N-(3-acrylamido-4-(4-ethylpiperazin-1-yl)phenyl)-1-oxo-1,2,3,4-tetrahydropyrazino[1,2-a]indole-7-carboxamide]: in test [1], the pIC50 is 6.00 to 6.30. Besides, at MK2, the “MK2 Mass Mod” value was “E (mass modification of ≥70%)”.

Take `C=CC(=O)N1CCC[C@H](NC(=O)c2ccc3cc4n(c3c2)C2(CCC2)CNC4=O)C1` [Compound V-47, (S)—N-(1-acryloylpiperidin-3-yl)-1′-oxo-2′,3′-dihydro-1′H-spiro[cyclobutane-1,4′-pyrazino[1,2-a]indole]-7′-carboxamide]: the pIC50 in test [1] was less than 6.00. Moreover, the “MK2 Mass Mod” value at MK2 is “G (mass modification ≤30%)”.

Regarding `C=CC(=O)NC1CN(C)CC1NC(=O)c1ccc2sc3c(c2c1)NC[C@@H](C)NC3=O` (stereo partly shown) [III-50], the pIC50 in test [1] was greater than 7.00. In addition, at MK2, the “MK2 Mass Mod” value is “G (mass modification ≤30%)”.

Regarding `C=CC(=O)Nc1cc(-c2nccc(-c3cc4c([nH]3)CCNC4=O)n2)ccc1OCCOC` [II-22, N-(2-(2-methoxyethoxy)-5-(4-(4-oxo-4,5,6,7-tetrahydro-1H-pyrrolo[3,2-c]pyridin-2-yl)pyrimidin-2-yl)phenyl)acrylamide], in test [1], the pIC50 was greater than 7.00. Also, the “MK2 Mass Mod” value at MK2 is reported as “E (mass modification of ≥70%)”.

`C=CC(=O)Nc1ccccc1NC(=O)c1ccc2cc3n(c2c1)CCNC3=O` [Compound V-8, N-(2-acrylamidophenyl)-1-oxo-1,2,3,4-tetrahydropyrazino[1,2-a]indole-7-carboxamide]: the pIC50 in test [1] is less than 6.00. For the same compound, the “MK2 Mass Mod” value at MK2 is listed as “E (mass modification of ≥70%)”.

As for `C=CC(=O)Nc1cc(NC(=O)c2ccc3cc4n(c3c2)C2(CCC2)CNC4=O)ccc1C` [Compound V-53, N-(3-acrylamido-4-methylphenyl)-1′-oxo-2′,3′-dihydro-1′H-spiro[cyclobutane-1,4′-pyrazino[1,2-a]indole]-7′-carboxamide], the pIC50 in test [1] was less than 6.00. At MK2, the “MK2 Mass Mod” value is “E (mass modification of ≥70%)”.

In the case of `C=CC(=O)Nc1cc(-c2nccc(-c3cc4c([nH]3)CCNC4=O)n2)cnc1OCCOC` [II-21, N-(2-(2-methoxyethoxy)-5-(4-(4-oxo-4,5,6,7-tetrahydro-1H-pyrrolo[3,2-c]pyridin-2-yl)pyrimidin-2-yl)pyridin-3-yl)acrylamide], the pIC50 in test [1] is greater than 7.00. Further, the “MK2 Mass Mod” value on MK2 was “E (mass modification of ≥70%)”.

For the compound `C=CC(=O)Nc1c(C)ccc2oc(-c3ccc4cc5n(c4c3)C3(CCC3)CNC5=O)nc12` [Compound V-12, N-(5-methyl-2-(1′-oxo-2′,3′-dihydro-1′H-spiro[cyclobutane-1,4′-pyrazino [1,2-a]indol]-7′-yl)benzo[d]oxazol-4-yl)acrylamide], the pIC50 in test [1] is less than 6.00.

On to `C=CC(=O)N1CCOc2ncc(-c3cc4c(cn3)CCc3c-4[nH]c4c3C(=O)NCC4)cc21` [II-18, 2-(1-acryloyl-2,3-dihydro-1H-pyrido[2,3-b][1,4]oxazin-7-yl)-8,9,10,11-tetrahydro-SH-pyrido[3′,4′:4,5]pyrrolo[2,3-f]isoquinolin-7(6H)-one], for which, in test [1], the pIC50 was greater than 7.00. Also, on MK2, the “MK2 Mass Mod” value is listed as “E (mass modification of ≥70%)”.

With `C=CC(=O)Nc1cc(-c2cc(-c3cc4n(c3)CCNC4=O)ccn2)ccc1OC` [V-c-1, N-(2-methoxy-5-(4-(1-oxo-1,2,3,4-tetrahydropyrrolo[1,2-a]pyrazin-7-yl)pyridin-2-yl)phenyl)acrylamide], the “MK2 Mass Mod” value at MK2 was “F (mass modification of 31-69%)”.

As to `C=CC(=O)NC1CCCCC1NC(=O)c1ccc2cc3n(c2c1)C1(CCC1)CNC3=O` (racemic) [Compound V-64, trans-(2-acrylamidocyclohexyl)-1′-oxo-2′,3′-dihydro-1′H-spiro[cyclobutane-1,4′-pyrazino[1,2-a]indole]-7′-carboxamide (racemic)], in test [1], the pIC50 was less than 6.00.

Consider `C=CC(=O)Nc1ccccc1Nc1nccc(-c2cc3c([nH]2)C2(CCCNC2)CNC3=O)n1` (racemic) [Compound I-5, N-(2-((4-(4′-oxo-1′,4′,5′,6′-tetrahydrospiro[piperidine-3,7′-pyrrolo[3,2-c]pyridin]-2′-yl)pyrimidin-2-yl)amino)phenyl)acrylamide], for which, in test [1], the pIC50 is less than 6.00. For the same compound, the “MK2 Mass Mod” value at MK2 is listed as “F (mass modification of 31-69%)”.

`C=CC(=O)Nc1c(C)c(NC2CCCNC2)nc2ccnn12` (stereo not shown) [IV-b-1, N-(6-methyl-5-(piperidin-3-ylamino)pyrazolo [1,5-a]pyrimidin-7-yl)acrylamide]: the pIC50 in test [1] is 6.30 to 7.00.

`C=CC(=O)Nc1cc(-c2cc3c(cn2)CCc2c-3[nH]c3c2C(=O)NCC3)ccc1OCCCNC(=O)CCCC(=O)NCCCOCCOCCOCCCNC(=O)CCCC[C@H]1SC[C@H]2NC(=O)N[C@H]21` [Probe 2, N1-(3-(2-acrylamido-4-(7-oxo-6,7,8,9,10,11-hexahydro-5H-pyrido[3′,4′:4,5]pyrrolo[2,3-f]isoquinolin-2-yl)phenoxy)propyl)-N5-(15-oxo-19-((3aR,4R,6aS)-2-oxohexahydro-1H-thieno[3,4-d]imidazol-4-yl)-4,7,10-trioxa-14-azanonadecyl)glutaramide]: in test [1], the pIC50 was greater than 7.00.
